{NH2C6} = aminohexyl linker, H2N-(CH2)6-
Legend:
thrombin = target: T1, thrombin (Homo sapiens, UniProt P00734); conditions: read-out: Kd^app values reported in the art; cited from earlier work
T1 construct: 200 μL (2 nmol) of the thrombin solution prepared at a concentration of 10 pmol/pt was prepared; purchased Research Laboratories

SK-BR-3 cells = experiment: Cell viability by MTT reduction assay, SK-BR-3
Method: In order to maintain the cells in the log phase, a fresh medium was resupplied two or three times a week.
The cell viability was measured using the standard 3-(4,5-dimethylthiazol-2-yl)-2,5-diphenyltetrazolium bromide (MTT) reduction assay. Simply, cells that grow exponentially were inoculated at a density of 5×10^3 per well in a 96-well with flat bottom plate (200 μL/well) and cultured at 37° C. for 24 hours.
10 μL of MTT solution was added to each well, and the cells were further cultured at 37° C. for 4 hours. The amount of formazan product was measured at 570 nm. The cell survival fraction was calculated as a percentage of the untreated control group.

[1] = target: extracellular domain of a HER2 protein (Homo sapiens, UniProt P04626); conditions: cited from earlier work
HER2 epitope peptide = conditions: read-out: Kd for HER2 epitope peptide (reported); cited from earlier work

## 15-mer DNA aptamer: 5′-H2N—(CH2)6-GGT TGG TGT GGT TGG-3′, specifically binds to thrombin
thrombin
  Kd: 20.2 nM

## 29-mer DNA aptamer: 5′-H2N—(CH2)6-AGTCCGTGGTAGGGCAGGTTGGGGTGACT-3′, specifically binds to thrombin
thrombin
  Kd: 3.5 nM

## COc1cccc2c1C(=O)c1c(O)c3c(c(O)c1C2=O)C[C@@](O)(C(=O)CO)C[C@@H]3O[C@H]1C[C@H](N)[C@H](O)[C@H](C)O1 [Dox, doxorubicin]
SK-BR-3 cells; Homo sapiens, SK-BR-3, 24 h, read-out: IC50 for SK-BR-3
  IC50: 43.9 nM

B1: anti-HER2 aptamer: anti-human epidermal growth factor 2 (HER2) aptamer, SEQ ID NO: 3, purchased from Bioneers (nucleic acid)
DNA: AACCGCCCAAATCCCTAAGAGTCTGCACTTGTCATTTTGTATATGTATTTGGTTTTTGGCTCTCACAGACACACTACACACGCACA
modifications: DNA, 5' {NH2C6}, backbone not given here; further chemistry not fully specified
[1]
  Kd: 315 nM
HER2 epitope peptide
  Kd: 18.9 nM
SK-BR-3 cells; 0 nM to 100 nM, FIG. 10
  cytotoxicity against SK-BR-3 cells: does not have cytotoxicity
